These are literature values, as cited in patent publication US20070117788A1, “Combination of a dopamine D2-receptor agonist and tiotropium or a derivative therof for treating obstructive airways and other inflammatory diseases” (Boehringer Ingelheim Pharma GmbH & Co. KG, priority 2001, published 2007).

The subject of one data set is δ and ε protein kinase C. Conditions: with ethanol, neural cells in culture.

On to `CCCn1c(=O)c2c(C)nc(CC)n2c2nc(OC)ccc21` [Example D-22888], for which, in the data set on antigen-challenged pig, the anti-allergic effect result is recorded as “strong anti-allergic affect” and the rhinorrhea entry is reported as “inhibit rhinorrhea”.
Consider `Br.CCCN1CCc2cc(O)cc3c2[C@H]1Cc1ccc(O)c(O)c1-3` [R(−)-2,10,11-trihydroxy-N-propyl-noraporphine hydrobromide], for which the “translocation of δ and ε protein kinase C” value in the data set on δ and ε protein kinase C is recorded as “acts synergistically with ethanol to cause translocation”.
